Reference: patent US8217066B2, “Compounds as lysophosphatidic acid receptor antagonists” (Amira Pharmaceuticals, Inc., priority 2009, dated 2012)

biological target: T1, human LPA1 (Homo sapiens, UniProt Q92633); assay: LPA1 calcium flux assay (HLPA1 Ca Flux); format: cell-based; conditions: CHO cells stably expressing human LPA1, stimulated with 10 nM LPA
T1 construct: the full-length cDNA for human LPA1 was obtained by PCR of the reverse transcription reaction; expressed in transfected cells
Description: A 1.1 kb cDNA encoding the human LPA1 receptor was cloned from human lung. Human lung RNA (Clontech Laboratories, Inc. USA) was reverse transcribed using the RETROscript kit (Ambion, Inc.) and the full-length cDNA for human LPA1 was obtained by PCR of the reverse transcription reaction. The nucleotide sequence of the cloned human LPA1 was determined by sequencing and confirmed to be identical to the published human LPA1 sequence (An et al. Biochem. Biophys. Res. Commun. 231:619 (1997). The cDNA was cloned into the pcDNA5/FRT expression plasmid and transfected in CHO cells using lipofectamine 2000 (Invitrogen Corp., USA). Clones stably expressing human LPA1 were selected using hygromycin and identified as cells that show Ca-influx in response to LPA.
Human LPA1 or LPA3 expressing CHO cells are seeded at 20,000-45,000 cells per well in a 96-well poly-D-lysine coated plate one or two days before the assay. Prior to the assay, the cells are washed once with PBS and then cultured in serum-free media overnight. On the day of the assay, a calcium indicator dye (Calcium 4, Molecular Devices) in assay buffer (HBSS with Ca^2+ and Mg^2+ and containing 20 mM Hepes and 0.3% fatty-acid free human serum albumin) is added to each well and incubation continued for 1 hour at 37° C. […] of test compounds in 2.5% DMSO are added to the cells and incubation continued at room temperature for 30 minutes. Cells are the stimulated by the addition of 10 nM LPA and intracellular Ca^2+ measured using the Flexstation 3 (Molecular Devices). IC50s are determined using Graphpad prism analysis of drug titration curves.

T1 sequence (Q92633 whole entry): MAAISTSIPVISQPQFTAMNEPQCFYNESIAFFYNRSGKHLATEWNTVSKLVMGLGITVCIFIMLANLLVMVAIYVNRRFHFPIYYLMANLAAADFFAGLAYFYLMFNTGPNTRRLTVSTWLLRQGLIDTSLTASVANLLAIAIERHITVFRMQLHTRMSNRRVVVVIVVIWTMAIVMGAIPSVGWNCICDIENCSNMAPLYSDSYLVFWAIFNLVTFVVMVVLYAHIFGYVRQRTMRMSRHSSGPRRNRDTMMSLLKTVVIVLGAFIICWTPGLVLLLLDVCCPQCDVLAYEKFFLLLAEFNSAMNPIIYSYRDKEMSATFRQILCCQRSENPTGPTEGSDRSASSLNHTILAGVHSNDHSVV

Compound | IC50
Cc1noc(-c2ccc(-c3ccc(C4(C(=O)O)CC4)cc3)cc2)c1NCCC(C)c1ccccc1 (stereo not drawn) [Compound 1, 1-{4′-[3-Methyl-4-(3-phenyl-butylamino)-isoxazol-5-yl]-biphenyl-4-yl}-cyclopropanecarboxylic acid] | < 300 nM
Cc1noc(-c2ccc(-c3ccc(C4(C(=O)O)CC4)cc3)cc2)c1NCCCc1ccccc1 [Compound 2, 1-{4′-[3-Methyl-4-(3-phenyl-propylamino)-isoxazol-5-yl]-biphenyl-4-yl}-cyclopropanecarboxylic acid] | < 300 nM
Cc1noc(-c2ccc(-c3ccc(C4(C(=O)O)CC4)cc3)cc2)c1NCC(C)Cc1ccc(C(C)C)cc1 (stereo not drawn) [Compound 3, 1-(4′-{4-[3-(4-Isopropyl-phenyl)-2-methyl-propylamino]-3-methyl-isoxazol-5-yl}-biphenyl-4-yl)-cyclopropanecarboxylic acid] | 300 to 1000 nM
Cc1noc(-c2ccc(-c3ccc(C4(C(=O)O)CC4)cc3)cc2)c1CNCCc1ccccc1 [Compound 5, 1-{4′-[3-Methyl-4-(phenethylamino-methyl)-isoxazol-5-yl]-biphenyl-4-yl}-cyclopropanecarboxylic acid] | 300 to 1000 nM
Cc1noc(-c2ccc(-c3ccc(C4(C(=O)O)CC4)cc3)cc2)c1CCCCc1ccccc1 [Compound 6, 1-{4′-[3-Methyl-4-(4-phenyl-butyl)-isoxazol-5-yl]-biphenyl-4-yl}-cyclopropanecarboxylic acid] | < 300 nM
Cc1noc(-c2ccc(-c3ccc(C4(C(=O)O)CC4)cc3)cc2)c1CCOCc1ccccc1 [Compound 7, 1-{4′-[4-(2-Benzyloxy-ethyl)-3-methyl-isoxazol-5-yl]-biphenyl-4-yl}-cyclopropanecarboxylic acid] | < 300 nM
Cc1noc(-c2ccc(-c3ccc(C4(C(=O)O)CC4)cc3)cc2)c1COCCc1ccccc1 [Compound 8, 1-[4′-(3-Methyl-4-phenethyloxymethyl-isoxazol-5-yl)-biphenyl-4-yl]-cyclopropanecarboxylic acid] | < 300 nM
Cc1noc(-c2ccc(-c3ccc(C4(C(=O)O)CC4)cc3)cc2)c1COC(C)Cc1ccccc1 (stereo not drawn) [Compound 9, 1-{4′-[3-Methyl-4-(1-methyl-2-phenyl-ethoxymethyl)-isoxazol-5-yl]-biphenyl-4-yl}-cyclopropanecarboxylic acid] | < 300 nM
Cc1noc(-c2ccc(-c3ccc(C4(C(=O)O)CC4)cc3)cc2)c1CSCCc1ccccc1 [Compound 10, 1-[4′-(3-Methyl-4-phenethylsulfanylmethyl-isoxazol-5-yl)-biphenyl-4-yl]-cyclopropanecarboxylic acid] | < 300 nM
Cc1noc(-c2ccc(-c3ccc(C4(C(=O)O)CC4)cc3)cc2)c1COCC(C)c1ccccc1 (stereo not drawn) [Compound 11, 1-{4′-[3-Methyl-4-(2-phenyl-propoxymethyl)-isoxazol-5-yl]-biphenyl-4-yl}-cyclopropanecarboxylic acid] | < 300 nM
Cc1noc(-c2ccc(-c3ccc(C4(C(=O)O)CC4)cc3)cc2)c1CNCC(O)c1ccccc1 (stereo not drawn) [Compound 12, 1-(4′-{4-[(2-Hydroxy-2-phenyl-ethylamino)-methyl]-3-methyl-isoxazol-5-yl}-biphenyl-4-yl)-cyclopropanecarboxylic acid] | 1000 to 50000 nM
Cc1noc(-c2ccc(-c3ccc(C4(C(=O)O)CC4)cc3)cc2)c1CNCC(C)c1ccccc1 (stereo not drawn) [Compound 13, 1-(4′-{3-Methyl-4-[(2-phenyl-propylamino)-methyl]-isoxazol-5-yl}-biphenyl-4-yl)-cyclopropanecarboxylic acid] | < 300 nM
Cc1noc(-c2ccc(-c3ccc(C4(C(=O)O)CC4)cc3)cc2)c1CCOC(C)c1ccccc1 (stereo not drawn) [Compound 14, 1-(4′-{3-Methyl-4-[2-(1-phenyl-ethoxy)-ethyl]-isoxazol-5-yl}-biphenyl-4-yl)-cyclopropanecarboxylic acid] | < 300 nM
Cc1noc(-c2ccc(-c3ccc(C4(C(=O)O)CC4)cc3)cc2)c1CCOCc1ccccc1Cl [Compound 15, 1-(4′-{4-[2-(2-Chloro-benzyloxy)-ethyl]-3-methyl-isoxazol-5-yl}-biphenyl-4-yl)-cyclopropanecarboxylic acid] | < 300 nM
Cc1noc(-c2ccc(-c3ccc(C4(C(=O)O)CC4)cc3)cc2)c1CCOCc1cccc(Cl)c1 [Compound 16, 1-(4′-{4-[2-(3-Chloro-benzyloxy)-ethyl]-3-methyl-isoxazol-5-yl}-biphenyl-4-yl)-cyclopropanecarboxylic acid] | < 300 nM
Cc1noc(-c2ccc(-c3ccc(C4(C(=O)O)CC4)cc3)cc2)c1CCOCc1ccc(Cl)cc1 [Compound 17, 1-(4′-{4-[2-(4-Chloro-benzyloxy)-ethyl]-3-methyl-isoxazol-5-yl}-biphenyl-4-yl)-cyclopropanecarboxylic acid] | < 300 nM
Cc1noc(-c2ccc(-c3ccc(C4(C(=O)O)CC4)cc3)cc2)c1CCSCc1ccccc1 [Compound 18, 1-{4′-[4-(2-Benzylsulfanyl-ethyl)-3-methyl-isoxazol-5-yl]-biphenyl-4-yl}-cyclopropanecarboxylic acid] | < 300 nM
Cc1noc(-c2ccc(-c3ccc(C4(C(=O)O)CC4)cc3)cc2)c1COCC(C)(O)c1ccccc1 (stereo not drawn) [Compound 19, 1-{4′-[4-(2-hydroxy-2-phenyl-propoxymethyl)-3-methyl-isoxazol-5-yl]-biphenyl-4-yl}-cyclopropanecarboxylic acid] | 1000 to 50000 nM
Cc1noc(-c2ccc(-c3ccc(C4(C(=O)O)CC4)cc3)cc2)c1CC(O)CCc1ccccc1 (stereo not drawn) [Compound 20, 1-{4′-[4-(2-Hydroxy-4-phenyl-butyl)-3-methyl-isoxazol-5-yl]-biphenyl-4-yl}-cyclopropanecarboxylic acid] | < 300 nM
Cc1noc(-c2ccc(-c3ccc(C4(C(=O)O)CC4)cc3)cc2)c1CNC[C@H](C)c1ccccc1 [Compound 22, 1-(4′-{3-Methyl-4-[((R)-2-phenyl-propylamino)-methyl]-isoxazol-5-yl}-biphenyl-4-yl)-cyclopropanecarboxylic acid] | < 300 nM
Cc1noc(-c2ccc(-c3ccc(C4(C(=O)O)CC4)cc3)cc2)c1CCC(O)Cc1ccccc1 (stereo not drawn) [Compound 23, 1-{4′-[4-(3-Hydroxy-4-phenyl-butyl)-3-methyl-isoxazol-5-yl]-biphenyl-4-yl}-cyclopropanecarboxylic acid] | 300 to 1000 nM
Cc1noc(-c2ccc(-c3ccc(C4(C(=O)O)CC4)cc3)cc2)c1CC(C)(O)CCc1ccccc1 (stereo not drawn) [Compound 25, 1-{4′-[4-(2-Hydroxy-2-methyl-4-phenyl-butyl)-3-methyl-isoxazol-5-yl]-biphenyl-4-yl}-cyclopropanecarboxylic acid] | < 300 nM
Cc1noc(-c2ccc(-c3ccc(C4(C(=O)O)CC4)cc3)cc2)c1C(C)(O)CCCc1ccccc1 (stereo not drawn) [Compound 26, 1-{4′-[4-(1-Hydroxy-1-methyl-4-phenyl-butyl)-3-methyl-isoxazol-5-yl]-biphenyl-4-yl}-cyclopropanecarboxylic acid] | < 300 nM
Cc1noc(-c2ccc(-c3ccc(C4(C(=O)O)CC4)cc3)cc2)c1CC(O)CNCc1ccccc1 (stereo not drawn) [Compound 27, 1-{4′-[4-(3-Benzylamino-2-hydroxy-propyl)-3-methyl-isoxazol-5-yl]-biphenyl-4-yl}-cyclopropanecarboxylic acid] | 1000 to 50000 nM
Cc1noc(-c2ccc(-c3ccc(C4(C(=O)O)CC4)cc3)cc2)c1CCNCc1ccccc1 [Compound 28, 1-{4′-[4-(2-Benzylamino-ethyl)-3-methyl-isoxazol-5-yl]-biphenyl-4-yl}-cyclopropanecarboxylic acid] | 300 to 1000 nM
Cc1noc(-c2ccc(-c3ccc(C4(C(=O)O)CC4)cc3)cc2)c1C(O)CNCc1ccccc1 (stereo not drawn) [Compound 29, 1-{4′-[4-(2-Benzylamino-1-hydroxy-ethyl)-3-methyl-isoxazol-5-yl]-biphenyl-4-yl}-cyclopropanecarboxylic acid] | < 300 nM
Cc1noc(-c2ccc(-c3ccc(C4(C(=O)O)CC4)cc3)cc2)c1NC(C)CCc1cccc(C(F)(F)F)c1 (stereo not drawn) [Compound 31, 1-(4′-{3-Methyl-4-[1-methyl-3-(3-trifluoromethyl-phenyl)-propylamino]-isoxazol-5-yl}-biphenyl-4-yl)-cyclopropanecarboxylic acid] | < 300 nM
Cc1noc(-c2ccc(-c3ccc(C4(C(=O)O)CC4)cc3)cc2)c1C(O)CCc1ccccc1 (stereo not drawn) [Compound 34, 1-{4′-[4-(1-Hydroxy-3-phenyl-propyl)-3-methyl-isoxazol-5-yl]-biphenyl-4-yl}-cyclopropanecarboxylic acid] | < 300 nM
Cc1noc(-c2ccc(-c3ccc(C4(C(=O)O)CC4)cc3)cc2)c1C(O)CCc1cccc(C(F)(F)F)c1 (stereo not drawn) [Compound 35, 1-(4′-{4-[1-Hydroxy-3-(3-trifluoromethyl-phenyl)-propyl]-3-methyl-isoxazol-5-yl}-biphenyl-4-yl)-cyclopropanecarboxylic acid] | < 300 nM
Cc1noc(-c2ccc(-c3ccc(C4(C(=O)O)CC4)cc3)cc2)c1C(O)CCCc1cccc(C(F)(F)F)c1 (stereo not drawn) [Compound 36, 1-(4′-{4-[1-Hydroxy-4-(3-trifluoromethyl-phenyl)-butyl]-3-methyl-isoxazol-5-yl}-biphenyl-4-yl)-cyclopropanecarboxylic acid] | < 300 nM
